Laboratory results from patent publication EP1621201A1, “Hesperidin for prophylaxis and treatment of diseases of the central nervous system, in particular Alzheimer's and Parkinson's diseases, for therapy after stroke as well as for chronic pain” (NeuroCode AG, priority 2004, dated 2006).

System: Fischer-344 Ratten
Assay: Tele-Stereo-EEG in freely moving rats (field potentials from frontal cortex, hippocampus, striatum, reticular formation; power density spectra)
Assay type: in vivo, Ratte
Settings: rat
Method: Die Veränderungen der EEG-Frequenzen nach intraperitonealer Gabe von Salzlösung (Kontrolle) bzw. einer Dosis von Hesperidin (80 und 160 mg/kg Körpergewicht) wurden bestimmt.
Die Untersuchungen wurden analog der durch W. Dimpfel beschriebenen Methode (Dimpfel W Preclinical data base of pharmaco-specific rat EEG fingerprints (Tele-Stereo-EEG). Eur J Med Res (2003) 8: 199-207) folgendermaßen durchgeführt:
Zwölf männlichen erwachsenen Fischer-344 Ratten (Tag-Nacht konvertiert) wurden im Alter von 6 Monaten 4 bipolar konzentrische Elektroden zusammen mit einem Mikrostecker auf einer gemeinsamen Basisplatte implantiert. Der Stecker diente der Aufnahme eines 4-Kanal-Senders zur telemetrischen Übertragung der aus frontalem Kortex, Hippokampus, Striatum und Formation Reticularis abgeleiteten Feldpotentiale. Die Signale wurden auf einem Computer System (Software "EEG-Analyse", Betriebssystem OS Science, Laborrechner "LabTeam" der Firma MediSyst, Linden, DE) in Echtzeit einer Fast-Fourier-Transformation unterworfen und die Leistungsdichtespektren jeweils über 15 bis 60 Minuten gemittelt. Die Unterteilung der Spektren in 6 verschiedene Frequenzbereiche erlaubte die Erfassung pharmako-spezifischer Veränderungen in Bezug auf die jeweils vor Applikation gemessenen Vorwerte innerhalb dieser Frequenzbänder.
Zum Applikationsprotokoll der Substanzen: die Substanzen wurden i.p. 45 Minuten nach Beginn der Messungen (Vorwert) injiziert. Fünf Minuten später wurden die Messungen wieder gestartet, mindestens über die nächsten 5 Stunden kontinuierlich analysiert und in 60-minütigen Perioden zusammengefaßt. Die Testsubstanz wurde in einer Dosierung von 80 und 160 mg/kg appliziert. Die experimentelle Serie wurde mit der Injektion von Salzlösung (Kontrolle), die zu keiner auffälligen Änderung führte, begonnen.
Der statistische Vergleich der Versuche zu den Ergebnissen, die nach Gabe von Salzlösung gemessen wurde, erfolgte mit Hilfe einer multivariaten Analyse nach Ahrens und Läuter (siehe H. Ahrens, J. Läuter "Mehrdimensionale Varianzanalyse" (1974), Akademie Verlag, Berlin) auf der Basis der Veränderungen innerhalb der einzelnen Frequenzbänder in allen Hirnregionen als Variablen.

SMILES: COc1ccc([C@@H]2CC(=O)c3c(O)cc(O[C@@H]4O[C@H](CO[C@@H]5O[C@@H](C)[C@H](O)[C@@H](O)[C@H]5O)[C@@H](O)[C@H](O)[C@H]4O)cc3O2)cc1O [Hesperidin, Hesperetin 7-rhamnoglucosid]
- zeitabhängige Veränderungen der EEG-Frequenzen (delta, theta und alpha2 Frequenzen) (80 or 160 mg/kg Hesperidin i.p., Fig. 3a and 3b): nehmen statistisch signifikant und dauerhaft ab
- correlation of the EEG pattern with patterns of drugs for neurodegenerative diseases, pain and stroke (discriminant analysis) (i.p. single dose, compared with Tacrin, Piracetam, Memantine, Metamizol, Amphetamin, no correlation with patterns of drugs for other indications): korrelieren in signifikanter Weise
- delta, theta und alpha2 Frequenzen (i.p., 160 mg/kg, first hour after administration): Abfall
- duration for which the pattern (decrease of delta, theta, alpha2) was observed (i.p., 160 mg/kg, whole test period): 5 Stunden
- Veränderungen der Leistungsdichte in den einzelen Hirnregionen (i.p., 80 and 160 mg/kg, versus pre-drug baseline): dosis-abhängig zu deutlichen Veränderungen
- Muster der EEG-Frequenzänderungen (i.p., after 80 and 160 mg/kg, versus saline): stabiles, statistisch signifikantes Muster
